Assay results as given in ChEMBL document CHEMBL1133459, “Adenosine kinase inhibitors. 1. Synthesis, enzyme inhibition, and antiseizure activity of 5-iodotubercidin analogues” (J Med Chem, 2000).
pIC50: −log10 of the molar value.

species on record: Rattus norvegicus; test: Evaluated for antiseizure activity in rat maximal electric shock (MES) seizure model and represented as ED50.; format: functional

NC[C@H]1O[C@@H](n2cc(I)c3c(N)ncnc32)[C@H](O)[C@@H]1O and Nc1ncnc2c1c(I)cn2[C@@H]1O[C@H](CO)[C@@H](O)[C@H]1O [IODOTUBERCIDIN] are within 1.5-fold of each other in ED50: 7.1 mg/kg for the first, 6 mg/kg for the second.

C[C@H]1O[C@@H](n2cc(Br)c3c(N)ncnc32)[C@H](O)[C@@H]1O and C[C@H]1O[C@@H](n2cc(I)c3c(N)ncnc32)[C@H](O)[C@@H]1O [5-IODO,5'-DEOXYTUBERCIDIN] cannot be ordered by ED50: under 3.7 mg/kg for the first, 0.3 mg/kg for the second.

NC[C@H]1O[C@@H](n2cc(Br)c3c(N)ncnc32)[C@H](O)[C@@H]1O gave an ED50 of 4.2 mg/kg.

target: Adenosine kinase (Homo sapiens, UniProt P55263); test: Inhibition of recombinant human adenosine kinase
Sequence (P55263 whole entry): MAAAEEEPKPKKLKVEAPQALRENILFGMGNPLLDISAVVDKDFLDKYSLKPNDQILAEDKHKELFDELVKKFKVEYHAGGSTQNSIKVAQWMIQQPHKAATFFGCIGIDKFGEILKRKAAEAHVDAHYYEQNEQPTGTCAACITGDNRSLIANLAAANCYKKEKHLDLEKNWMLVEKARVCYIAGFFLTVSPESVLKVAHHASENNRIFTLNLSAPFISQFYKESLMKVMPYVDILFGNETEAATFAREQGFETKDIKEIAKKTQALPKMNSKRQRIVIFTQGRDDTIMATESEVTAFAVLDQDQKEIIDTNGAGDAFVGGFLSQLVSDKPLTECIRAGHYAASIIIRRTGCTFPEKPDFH

C[C@H]1O[C@@H](n2cc(C#N)c3c(N)ncnc32)[C@H](O)[C@@H]1O and N#Cc1cn([C@@H]2O[C@H](CO)[C@@H](O)[C@H]2O)c2ncnc(N)c12 [TOYOCAMYCIN] are the same in pIC50: 6.51 for the first, 6.51 for the second.

First: C=C[C@H]1O[C@@H](n2cc(I)c3c(N)ncnc32)[C@H](O)[C@@H]1O
Second: NC[C@H]1O[C@@H](n2cc(I)c3c(N)ncnc32)[C@H](O)[C@@H]1O
The pIC50 of the first is 2.22 log units lower: 7.00 for the first, 9.22 for the second. The second is the more potent here.

First: CSc1ncnc2c1c(I)cn2[C@@H]1O[C@H](C)[C@@H](O)[C@H]1O
Second: C=CCSc1ncnc2c1c(I)cn2[C@@H]1O[C@H](C)[C@@H](O)[C@H]1O
The pIC50 of the first is 1.80 log units higher: 7.35 for the first, 5.55 for the second.

NC[C@H]1O[C@@H](n2ccc3c(N)ncnc32)[C@H](O)[C@@H]1O and Nc1ncnc2c1ccn2[C@@H]1O[C@H](CO)[C@@H](O)[C@H]1O [TUBERCIDIN] are within 0.2 log units of each other in pIC50: 4.89 for the first, 5.00 for the second.

First: Cc1cn([C@@H]2O[C@H](C)[C@@H](O)[C@H]2O)c2ncnc(Cl)c12
Second: C[C@H]1O[C@@H](n2cc(I)c3c(Cl)ncnc32)[C@H](O)[C@@H]1O
The pIC50 of the first is 2.25 log units lower: 6.27 for the first, 8.52 for the second.

Going from OC[C@H]1O[C@@H](n2cc(I)c3c(Cl)ncnc32)[C@H](O)[C@@H]1O to NC[C@H]1O[C@@H](n2cc(I)c3c(Cl)ncnc32)[C@H](O)[C@@H]1O, the pIC50 rises from 7.62 to 10.00 (2.38 log units).

Compared with C[C@H]1O[C@@H](n2cc(I)c3c(=S)[nH]cnc32)[C@H](O)[C@@H]1O, CCCCSc1ncnc2c1c(I)cn2[C@@H]1O[C@H](C)[C@@H](O)[C@H]1O is 0.81 log units higher in pIC50: 5.19 for the first, 6.00 for the second.

Going from Nc1ncnc2c1c(Cl)cn2[C@@H]1O[C@H](CO)[C@@H](O)[C@H]1O to Nc1ncnc2c1c(Br)cn2[C@@H]1O[C@H](CO)[C@@H](O)[C@H]1O, the pIC50 rises from 6.68 to 6.92 (0.24 log units).

First: [N-]=[N+]=NC[C@H]1O[C@@H](n2cc(I)c3c(Cl)ncnc32)[C@H](O)[C@@H]1O
Second: [N-]=[N+]=NC[C@H]1O[C@@H](n2cc(I)c3c(N)ncnc32)[C@H](O)[C@@H]1O
The pIC50 of the first is 0.59 log units higher: 8.05 for the first, 7.46 for the second.

First: CNc1ncnc2c1c(I)cn2[C@@H]1O[C@H](CO)[C@@H](O)[C@H]1O
Second: CC[C@H]1O[C@@H](n2cc(I)c3c(N)ncnc32)[C@H](O)[C@@H]1O
The pIC50 of the first is 1.30 log units lower: 5.92 for the first, 7.22 for the second.

First: COC[C@H]1O[C@@H](n2cc(I)c3c(N)ncnc32)[C@H](O)[C@@H]1O
Second: CC[C@H]1O[C@@H](n2cc(Br)c3c(N)ncnc32)[C@H](O)[C@@H]1O
The pIC50 of the first is 0.38 log units lower: 5.92 for the first, 6.30 for the second.

Compared with C[C@H]1O[C@@H](n2cc(I)c3c(SCc4ccc([N+](=O)[O-])cc4)ncnc32)[C@H](O)[C@@H]1O, C[C@H]1O[C@@H](n2cc(I)c3c(SCc4ccccc4)ncnc32)[C@H](O)[C@@H]1O is 0.30 log units higher in pIC50: 5.70 for the first, 6.00 for the second.

Going from NC[C@H]1O[C@@H](n2cc(Br)c3c(N)ncnc32)[C@H](O)[C@@H]1O to [N-]=[N+]=NC[C@H]1O[C@@H](n2cc(Br)c3c(N)ncnc32)[C@H](O)[C@@H]1O, the pIC50 falls from 9.70 to 7.20 (2.50 log units). The first is the more potent here.

Going from CSc1cn([C@@H]2O[C@H](C)[C@@H](O)[C@H]2O)c2ncnc(Cl)c12 to CSc1cn([C@@H]2O[C@H](C)[C@@H](O)[C@H]2O)c2ncnc(N)c12, the pIC50 falls from 7.15 to 5.87 (1.28 log units).

Compared with [N-]=[N+]=NC[C@H]1O[C@@H](n2cc(Br)c3c(Cl)ncnc32)[C@H](O)[C@@H]1O, C[C@H]1O[C@@H](n2cc(Br)c3c(Cl)ncnc32)[C@H](O)[C@@H]1O is 0.30 log units higher in pIC50: 7.00 for the first, 7.30 for the second.

Work on NC[C@H]1O[C@@H](n2cnc3c(N)ncnc32)[C@H](O)[C@@H]1O yielded a pIC50 of 6.77.
